Experimental data as given in patent US20110027240A1, “[…] ENTRY […] FOR THERAPY OF HIV INFECTION” (priority 2008, published 2011).

Tested on: lentiviral vector particles pseudotyped with the HIV-1 JRFL envelope glycoprotein
Test: Single-round infection assay
Assay type: cell-based
Settings: PM-1 cells; supernatants of transfected HEK 293T cells; eGFP positive cells by flow cytometry
Experimental: Virus production and titration: Viral vector supernatants were produced in HEK 293T cells. 6×10^6 cells were plated on 9.4 cm dishes 24 h prior to transfection. For transfection, the medium was changed and 25 μM chloroquine was added. 7.5 μg retroviral vector DNA was transfected by the calcium phosphate precipitation method. To generate GaLV pseudotyped retroviral particles 2 μg pALF-GaLV CM (GaLV CM expression plasmid; Stitz et al., Virology 2000) and 12.5 μg M57-DAW (MuLV gag/pol expression plasmid; Schambach et al., Gene Ther 2006) were transfected in addition. For the production of lentiviral vectors encoding eGFP, and pseudotyped with the HIV-1 JRFL envelope glycoprotein 7.5 μg pHR′SIN-cPPT-SEW-new (SIN lentiviral vector encoding eGFP), 12.5 μg pCMV-dR8.91 (lentiviral gag/pol expression plasmid), and 1 μg M118 (HIV-1 JRFL expression plasmid) were co-transfected. Medium was changed after 6-8 h incubation. […] In the case of lentiviral vectors expressing eGFP, vector titers were determined by transducing predefined numbers of PM-1 cells with serial dilutions of vector supernatant and analyzing the percentage of eGFP positive cells by flow cytometry. For retroviral vectors expressing secreted peptides transduced cells were analyzed by intracellular immunostaining for the peptide of interest. […]

Sequence: WQQWERQVRFLDANITKLLEEAQIQQEKNMYELQELDKWASLWNWF [C46-EHO]
- antiviral (inhibitory) activity of supernatants containing secreted peptides: slightly reduced
